Assay results reported in patent US20240059747A1, “UBIQUITIN VARIANT WITH HIGH AFFINITY FOR BINDING 53BP1 REDUCES THE AMOUNT OF AAV NEEDED TO ACHIEVE HIGH RATES OF HDR” (Integrated DNA Technologies, Inc., priority 2022, published 2024).

Legend:
HEK293 cells = assay: percent HDR by EcoR1 cleavage assay, Cas9 RNP nucleofection with AAV donor, HEK293 cells; type: cell-based; details: for dose dependence of HDR benefit: AAV donor at MOI 20,000, doses up to 200 μM
Procedure: FIG. 1C depicts an exemplary heatmap showing the percent HDR at SERPINC1 in K562 cells with and without 50 uM CM1tf. […] The heatmaps show the percent HDR measured by EcoR1 cleavage assay with and without the use of CM1tf. Cas9 RNP (2 μM) was delivered with and without CM1tf into cells by Lonza nucleofection using 4 μM Alt-R Cas9 Electroporation Enhancer. AAV donor containing an EcoR1 cut site insert with 500 bp homology arms was added at a range of multiplicity of infection (MOIs) to cells for 24 hours following RNP delivery.
FIG. 2B depicts an exemplary heatmap showing the percent HDR at SERPINC1 in HEK293 cells with no enhancer, CM1tf, V2, or CM1tf+V2. […] Cas9 RNP was co-delivered with and without CM1tf into cells by Lonza nucleofection with 2 μM Cas9 RNP, 4 μM Alt-R Cas9 Electroporation Enhancer, and 0 or 25 uM CM1tf. AAV donor containing an EcoR1 cut site insert with 500 bp homology arms was added at a range of MOIs to cells for 24 hours following RNP delivery. V2 enhancer was added to media at a 1 uM final concentration for 24 hours following nucleofection.
The heatmaps show the percent HDR at STAT3 measured by EcoR1 cleavage assay with or without CM1tf. Cas9 RNP was co-delivered with and without CM1tf into cells by Lonza nucleofection with 2 μM Cas9 RNP, 4 μM Alt-R Cas9 Electroporation Enhancer, and 0 or 25 uM CM1tf. AAV donor containing 500 base pair (bp), 300 bp, or 100 bp homology arms was added at a range of MOIs to cells for 24 hours following RNP delivery.
Cas9 RNP was co-delivered with and without CM1tf into cells by Lonza nucleofection with 2 μM Cas9 RNP, 4 μM Alt-R Cas9 Electroporation Enhancer, and range of CM1tf concentrations from 200 μM to 6.25 μM. AAV donor containing an EcoR1 cut site insert with 500 bp homology arms was added at an MOI of 20,000 to cells for 24 hours following RNP delivery.
We developed at tag-free version of CM1 (CM1tf) and tested its ability to enhance HDR in cell lines using AAV donor (see Table 1). AAV-DJ, a synthetic AAV serotype most closely related to AAV-2 that is a chimera of type 2/type 8/ and type 9, was chosen for testing due to its high transduction efficiency in vitro for a broad range of cell types. The dose of CM1tf was held constant while a range of MOIs was used for the AAV donor. The AAV donor was constructed such that a 6 base pair insert consisting of an EcoR1 cut site (GAATTC) was flanked by 500 base pairs of homology arm matching the genomic sequence on either side of the target cut site. Briefly, Cas9 V3 protein (IDT) and Alt-R sgRNA (IDT) were mixed at a 1:1.2 ratio, incubated for 10 min, then Alt-R Cas9 electroporation enhancer (EE) (IDT), 1× PBS (Gibco), and CM1tf, diluted in 1× PBS, were added. HEK293 or K562 cells were washed and resuspended in SF buffer for Lonza Nucleofection and added to the RNP+DNA mix such that the final concentration of Cas9 RNP was 2 μM, EE was 4 μM, and CM1tf was 25 μM (HEK293 cells) or 50 μM (K562 cells). Cells plus RNP+DNA were electroporated using program DS-150 (HEK293 cells) or FF-120 (K562 cells) using the Lonza nucleofector system. Cells were then plated in 96 well plates at 20,000 cells/well and AAV was added to the wells at a range of MOI from 0 (no virus) to 160,000, with MOI being calculated as viral genomes (vg) per cell with vg calculated using qPCR. Cells were recovered and plated with serum free media, AAV was added, then serum containing media was added after four hours. Genomic DNA was isolated 48 hours after RNP delivery using QuickExtract (Lucigen).
In order to optimize HDR, it is often desirable to use a combination of HDR enhancers that work by different mechanisms to further boost HDR rates beyond what can be achieved by any single enhancer alone.

HDR [1] = details: ssDNA donor; previous testing; cited from earlier work
53BP1 foci = details: introduced into cells; cited from earlier work
HDR [2] = details: plasmid, AAV mediated gene delivery or mRNA delivery; double-stranded and single-stranded DNA donors; cited from earlier work
K562 cells = assay: percent HDR by EcoR1 cleavage assay, Cas9 RNP nucleofection with AAV donor, K562 cells; type: cell-based; details: 50 μM CM1tf, SERPINC1, AAV donor MOI range, FIG. 1C
Procedure: FIG. 1C depicts an exemplary heatmap showing the percent HDR at SERPINC1 in K562 cells with and without 50 uM CM1tf. In FIG. 1A-C, the ubiquitin variant CM1tf boosts HDR when delivered with Cas9 RNP when an AAV vector is used to deliver the donor template. The heatmaps show the percent HDR measured by EcoR1 cleavage assay with and without the use of CM1tf. Cas9 RNP (2 μM) was delivered with and without CM1tf into cells by Lonza nucleofection using 4 μM Alt-R Cas9 Electroporation Enhancer. AAV donor containing an EcoR1 cut site insert with 500 bp homology arms was added at a range of multiplicity of infection (MOIs) to cells for 24 hours following RNP delivery.
We developed at tag-free version of CM1 (CM1tf) and tested its ability to enhance HDR in cell lines using AAV donor (see Table 1). AAV-DJ, a synthetic AAV serotype most closely related to AAV-2 that is a chimera of type 2/type 8/ and type 9, was chosen for testing due to its high transduction efficiency in vitro for a broad range of cell types. The dose of CM1tf was held constant while a range of MOIs was used for the AAV donor. […] Cells were then plated in 96 well plates at 20,000 cells/well and AAV was added to the wells at a range of MOI from 0 (no virus) to 160,000, with MOI being calculated as viral genomes (vg) per cell with vg calculated using qPCR. […]

Row | Substance | dose dependence of HDR benefit (HEK293 cells; FIG. 4) | benefit to HDR as a function of dose (HDR [1]) | optimal concentration for HDR benefit (HDR [1]) [µM] | formation of ionizing radiation induced 53BP1 foci (53BP1 foci) | rates of HDR (HDR [2]) | improvement in HDR rates, single enhancers and combination (HEK293 cells; 25 uM CM1tf, 1 μM V2 enhancer in media for 24 hours, AAV donor MOI range, HPRT1 and SERPINC1, FIG. 2) | boost of HDR rates (HEK293 cells; 25 μM CM1tf, AAV-DJ donor with 500 bp homology arms, MOI 0 to 160,000, HPRT1 and SERPINC1, FIG. 1A-B) | HDR boost compared with i53 (HEK293 cells; AAV donor at MOI 20,000, doses 6.25 to 200 μM, FIG. 4) | less AAV needed to achieve the same level of editing as without enhancer (HEK293 cells; HEK293 cells, 25 μM CM1tf, AAV donor MOI range) | boost of HDR (K562 cells)
1 | i53: ubiquitin variant inhibitor of 53BP1 (Canny et al.), SEQ ID NO: 1 | large performance increase going from 100 μM to 200 μM | decrease in benefit at 200 μM | 100 to 150 | inhibited the formation ionizing radiation induced 53BP1 foci | improve the rates of HDR |  |  |  |  | 
2 | CM1tf: tag-free version of ubiquitin variant CM1, SEQ ID NO: 3; K6R, T7M, T12M, T14E, K33H, A46Q, S65P, L67K, H68M relative to i53 | slightly larger benefit to HDR with increasing dose |  |  |  |  | approximately equivalent improvement in HDR rates | dramatically boosted HDR rates | continued to outperform i53 | approximately four-fold | boosts HDR
